# In US9452177B2, “Vitamin D compounds and methods for reducing ocular hypertension (OHT)” (Wisconsin Alumni Research Foundation, priority 2008, dated 2016):
# Test system: genes known to be involved in the regulation of IOP
# Assay: Rat intestine and mouse calvarial cell microarrays (gene expression)
# Protocol: Vitamin D-deficient rats were given one bolus intravenous dose of 730 ng of 1,25-(OH)2D3/kg of body weight in ethanol or ethanol vehicle (control). Rats were anesthetized with isofluorane and decapitated 1, 3, 6, 10 and 24 h after injection of the dose or vehicle. There were three rats in each group for each time point. Blood was collected at the same time for determination of changes in serum calcium concentration. For each rat, the first 15 cm of intestine (duodenum) was removed, slit longitudinally and scraped with a glass slide. The mucosa was placed in a vial with GTC extraction buffer supplemented with 2% of β-mercaptoethanol (PolyATtract System 1000, Promega Corp., Madison, Wis.), homogenized at high speed with PowerGen 700 (Fisher Scientific, Pittsburgh, Pa.), flash frozen in liquid N2 and stored at −80° C. Experiments were done in duplicate.
# For each time point, Poly(A+) RNA was isolated from pooled homogenized mucosa of three 1,25-(OH)2D3 or three vehicle treated rats. The mRNA was isolated using the PolyATtract System 1000 (Promega Corp., Madison, Wis.). The mRNA was purified using an RNeasy kit (Qiagen, Chatsworth, Calif.). The quality, integrity and quantity of the Poly(A+) RNA were determined by agarose gel electrophoresis, UV absorption spectrophotometry and the use of Agilent Bioanalyser 2100 (Agilent Technologies, Palo Alto, Calif.).
# Primary fetal mouse calvarial cells were isolated and cultured in αMEM containing 10% FBS as described [Shevde, 2002]. Cells were plated in the 2×6-well plates (5×10^5 cells/well) and cultured with medium changes performed on days 1 and 4. On day 4 cells on 1 plate were treated with 1,25(OH)2D3 (10 nM final concentration). Second plate was used as the control. After 24 h of incubation with 1,25(OH)2D3, cells were harvested and total RNA was isolated with Trizol reagent (Invitrogen Life Technologies, Carlsbad, Calif.). The mRNA was further purified using an RNeasy kit (Qiagen, Chatsworth, Calif.). The quality, integrity and quantity of the total RNA were assessed by agarose gel electrophoresis and UV absorption spectrophotometry. Experiments were done in triplicates. […]
# The hybridization reaction and the automated hybridization procedure were performed by the Gene Expression Center at the Biotechnology Center at the University of Wisconsin-Madison as described (Kutuzova, 2004). Each probe was tested on an Affymetrix Test3 Array and the quality of the cDNA and cRNA was determined by a 3′/5′ ratio of housekeeping genes within the array (ubiquitin, rat glyceraldehyde 3-phosphate dehydrogenase, β-actin, and hexokinase). […] Expression data were analyzed using the Affymetrix Microarrray Suite software version 5.0 (MAS 5.0). […]
# [1] = rat 730 ng/kg i.v., mouse calvarial cells 10 nM, 24 h
compound,measurement,setting,value
"C=C1/C(=C\C=C2/CCC[C@]3(C)[C@@H]([C@H](C)CCCC(C)(C)O)CC[C@@H]23)C[C@@H](O)C[C@@H]1O [1,25-(OH)2D3, 1α,25-dihydroxyvitamin D3]","expression of vasoactive intestinal peptide, topoisomerase I, MMP2",data not shown,decreased expression
same,"expression of ACTG2, ATP1A1, AQP1, CEACAM, FN1, CD44 and TIMP3",[1],Significantly down-regulated
same,"expression of PTGER4, MMP3, MMP11 and MMP13",[1],Significant increases
same,"mRNA expression for carbonic anhydrase I (CAI), angiotensin I converting enzyme (ACE) and actin alpha (ACTA1)",[1],strong reductions
